Laboratory results: patent US20230295197A1, “STAT5 and STAT6 Degraders and Uses Thereof” (REGENTS OF THE UNIVERSITY OF MICHICAN, priority 2022, published 2023)
Like-named read-outs stand apart in the source and are kept apart here.

Target: T1, STAT6 (Homo sapiens, UniProt P42226)
T1 construct: endogenous in cells; host or cells: MOLM-16, KU-812, SKNO1, MB231, L1236
T1 sequence (P42226 1-847): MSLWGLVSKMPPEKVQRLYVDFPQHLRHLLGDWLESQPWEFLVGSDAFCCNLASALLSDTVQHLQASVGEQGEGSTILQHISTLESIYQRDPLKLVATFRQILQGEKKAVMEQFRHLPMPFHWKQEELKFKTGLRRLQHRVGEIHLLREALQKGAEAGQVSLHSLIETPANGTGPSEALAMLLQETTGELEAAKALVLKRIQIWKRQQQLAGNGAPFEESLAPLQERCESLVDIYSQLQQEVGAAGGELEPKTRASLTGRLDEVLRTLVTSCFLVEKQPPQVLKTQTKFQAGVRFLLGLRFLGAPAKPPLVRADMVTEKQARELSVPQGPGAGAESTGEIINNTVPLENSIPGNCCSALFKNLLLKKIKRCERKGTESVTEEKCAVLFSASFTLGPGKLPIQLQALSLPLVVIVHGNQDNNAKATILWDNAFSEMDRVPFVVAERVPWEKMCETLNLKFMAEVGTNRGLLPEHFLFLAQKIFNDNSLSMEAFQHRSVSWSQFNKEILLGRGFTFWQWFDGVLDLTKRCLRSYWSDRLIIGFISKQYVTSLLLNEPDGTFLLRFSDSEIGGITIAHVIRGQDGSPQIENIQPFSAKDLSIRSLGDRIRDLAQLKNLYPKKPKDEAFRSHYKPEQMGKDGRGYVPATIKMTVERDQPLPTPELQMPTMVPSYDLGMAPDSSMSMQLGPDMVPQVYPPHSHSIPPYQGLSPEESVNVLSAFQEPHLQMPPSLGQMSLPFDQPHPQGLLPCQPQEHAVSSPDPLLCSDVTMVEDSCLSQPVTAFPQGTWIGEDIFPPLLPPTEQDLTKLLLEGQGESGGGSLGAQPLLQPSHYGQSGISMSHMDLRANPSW
Test: Immunoblotting (Western blot) analysis of STAT6 degradation efficiency of degraders in treated cells
Assay type: cell-based
How it was run: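 About 1 million cells per point, grown in 10% FBS medium at 37 °C/5% CO2, were exposed to compound at the indicated concentrations and times, then lysed in RIPA buffer with protease and phosphatase inhibitors. Equal protein (20-40 μg) was resolved by SDS-PAGE, blotted to PVDF, and probed with anti-STAT5, anti-STAT6 and anti-GAPDH antibodies.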

[1] = MOLM-16 cells, class symbols, read-out: DC50 S6 MOLM-16
[2] = L1236 cells, read-out: DC50 S6 L1236

Row | Compound | DC50 [1] | further results
1 | CC(C)(C)[C@H](NC(=O)c1cc2cc(C(F)(F)P(=O)(O)O)ccc2s1)C(=O)N1C[C@@H](OCC(=O)NCCCCCCCCCC#Cc2ccc3c(c2)C(=O)N(C2CCC(=O)NC2=O)C3=O)C[C@H]1C(=O)N1CCC[C@H](c2ccccc2)C1 (stereo partly drawn) [Compound 506, ((2-(((2S)-1-((2S,4S)-4-(2-((11-(2-(2,6-dioxopiperidin-3-yl)-1,3-dioxoisoindolin-5-yl)undec-10-yn-1-yl)amino)-2-oxoethoxy)-2-((R)-3-phenylpiperidine-1-carbonyl)pyrrolidin-1-yl)-3,3-dimethyl-1-oxobutan-2-yl)carbamoyl)benzo[b]thiophen-5-yl)difluoromethyl)phosphonic acid] | > 10 µM | 
2 | Cc1ncsc1-c1ccc([C@H](C)NC(=O)[C@@H]2C[C@@H](O)CN2C(=O)[C@@H](NC(=O)CCCCCCCNC(=O)COc2ccc3c(c2)CN(C(=O)[C@@H](NC(=O)c2cc4cc(C(F)(F)P(=O)(O)O)ccc4s2)C(C)(C)C)[C@H](C(=O)N2CCO[C@H](c4ccccc4)C2)C3)C(C)(C)C)cc1 [Compound 467, (difluoro(2-(((S)-1-((S)-7-(2-((8-(((S)-1-((2S,4R)-4-hydroxy-2-(((S)-1-(4-(4-methylthiazol-5-yl)phenyl)ethyl)carbamoyl)pyrrolidin-1-yl)-3,3-dimethyl-1-oxobutan-2-yl)amino)-8-oxooctyl)amino)-2-oxoethoxy)-3-((R)-2-phenylmorpholine-4-carbonyl)-3,4-dihydroisoquinolin-2(1H)-yl)-3,3-dimethyl-1-oxobutan-2-yl)carbamoyl)benzo[b]thiophen-5-yl)methyl)phosphonic acid] | > 10 µM | DC50 [2]: > 10 µM
3 | CC(C)(C)[C@H](NC(=O)c1cc2cc(C(F)(F)P(=O)(O)O)ccc2s1)C(=O)N1C[C@@H](OCC(=O)NCCCCCCCCC#Cc2cccc3c2C(=O)N(C2CCC(=O)NC2=O)C3=O)C[C@H]1C(=O)N1CCC[C@H](c2ccccc2)C1 (stereo partly drawn) [Compound 503, ((2-(((2S)-1-((2S,4S)-4-(2-((10-(2-(2,6-dioxopiperidin-3-yl)-1,3-dioxoisoindolin-4-yl)dec-9-yn-1-yl)amino)-2-oxoethoxy)-2-((R)-3-phenylpiperidine-1-carbonyl)pyrrolidin-1-yl)-3,3-dimethyl-1-oxobutan-2-yl)carbamoyl)benzo[b]thiophen-5-yl)difluoromethyl)phosphonic acid] | > 10 µM | 
4 | Cc1ncsc1-c1ccc([C@H](C)NC(=O)[C@@H]2C[C@@H](O)CN2C(=O)[C@@H](NC(=O)CCNC(=O)CC(=O)N2CCN(C(=O)[C@@H](NC(=O)c3cc4cc(C(F)(F)P(=O)(O)O)ccc4s3)C(C)(C)C)[C@H](C(=O)N3CCC[C@H](c4ccccc4)C3)C2)C(C)(C)C)cc1 [Compound 453, (difluoro(2-(((S)-1-((S)-4-(3-((3-(((S)-1-((2S,4R)-4-hydroxy-2-(((S)-1-(4-(4-methylthiazol-5-yl)phenyl)ethyl)carbamoyl)pyrrolidin-1-yl)-3,3-dimethyl-1-oxobutan-2-yl)amino)-3-oxopropyl)amino)-3-oxopropanoyl)-2-((R)-3-phenylpiperidine-1-carbonyl)piperazin-1-yl)-3,3-dimethyl-1-oxobutan-2-yl)carbamoyl)benzo[b]thiophen-5-yl)methyl)phosphonic acid] | > 10 µM | DC50 [2]: > 10 µM
5 | CC(C)(C)[C@H](NC(=O)c1cc2cc(C(F)(F)P(=O)(O)O)ccc2s1)C(=O)N1C[C@@H](OCCN2CCC(C#Cc3cccc4c3CN(C3CCC(=O)NC3=O)C4=O)CC2)C[C@H]1C(=O)N1CCO[C@H](c2ccccc2)C1 (stereo partly drawn) [Compound 604, ((2-(((2S)-1-((2S,4S)-4-(2-(4-((2-(2,6-dioxopiperidin-3-yl)-1-oxoisoindolin-4-yl)ethynyl)piperidin-1-yl)ethoxy)-2-((R)-2-phenylmorpholine-4-carbonyl)pyrrolidin-1-yl)-3,3-dimethyl-1-oxobutan-2-yl)carbamoyl)benzo[b]thiophen-5-yl)difluoromethyl)phosphonic acid] |  | DC50 (MOLM-16 cells, numeric bound, read-out: DC50 S6 MOLM-16): > 0.3 µM
6 | Cc1ncsc1-c1ccc([C@H](C)NC(=O)[C@@H]2C[C@@H](O)CN2C(=O)[C@@H](NC(=O)CCCCNC(=O)COc2ccc3c(c2)CN(C(=O)[C@@H](NC(=O)c2cc4cc(C(F)(F)P(=O)(O)O)ccc4s2)C(C)(C)C)[C@H](C(=O)N2CCC[C@H](c4ccccc4)C2)C3)C(C)(C)C)cc1 [Compound 473, (difluoro(2-(((S)-1-((S)-7-(2-((5-(((S)-1-((2S,4R)-4-hydroxy-2-(((S)-1-(4-(4-methylthiazol-5-yl)phenyl)ethyl)carbamoyl)pyrrolidin-1-yl)-3,3-dimethyl-1-oxobutan-2-yl)amino)-5-oxopentyl)amino)-2-oxoethoxy)-3-((R)-3-phenylpiperidine-1-carbonyl)-3,4-dihydroisoquinolin-2(1H)-yl)-3,3-dimethyl-1-oxobutan-2-yl)carbamoyl)benzo[b]thiophen-5-yl)methyl)phosphonic acid] | > 10 µM | 
7 | Cc1cc([C@H](C(=O)N2C[C@H](O)C[C@H]2C(=O)N[C@@H](CC(=O)NCCCCCCCCNC(=O)CCN(C(=O)[C@@H]2CCCN2C(=O)[C@@H](NC(=O)c2cc3cc(C(F)(F)P(=O)(O)O)ccc3s2)C(C)(C)C)c2ccc(Br)cc2)c2ccc(-c3scnc3C)cc2)C(C)C)on1 [Compound 408, ((2-(((S)-1-((S)-2-((4-bromophenyl)(3-((8-((S)-3-((2S,4R)-4-hydroxy-1-((R)-3-methyl-2-(3-methylisoxazol-5-yl)butanoyl)pyrrolidine-2-carboxamido)-3-(4-(4-methylthiazol-5-yl)phenyl)propanamido)octyl)amino)-3-oxopropyl)carbamoyl)pyrrolidin-1-yl)-3,3-dimethyl-1-oxobutan-2-yl)carbamoyl)benzo[b]thiophen-5-yl)difluoromethyl)phosphonic acid] |  | DC50 (MB231 cells, read-out: DC50 S6 MB231): > 10 µM

The next lines start with results.

Row | DC50 [1] | Compound | further results
8 | > 10 µM | CC(C)(C)[C@H](NC(=O)c1cc2cc(C(F)(F)P(=O)(O)O)ccc2s1)C(=O)N1Cc2cc(OCC(=O)NCCCCCCCCC#Cc3cccc4c3C(=O)N(C3CCC(=O)NC3=O)C4=O)ccc2C[C@H]1C(=O)N1CCO[C@H](c2ccccc2)C1 (stereo partly drawn) [Compound 545, ((2-(((2S)-1-((3S)-7-(2-((10-(2-(2,6-dioxopiperidin-3-yl)-1,3-dioxoisoindolin-4-yl)dec-9-yn-1-yl)amino)-2-oxoethoxy)-3-((R)-2-phenylmorpholine-4-carbonyl)-3,4-dihydroisoquinolin-2(1H)-yl)-3,3-dimethyl-1-oxobutan-2-yl)carbamoyl)benzo[b]thiophen-5-yl)difluoromethyl)phosphonic acid] | 
9 | > 10 µM | CC(C)(C)[C@H](NC(=O)c1cc2cc(C(F)(F)P(=O)(O)O)ccc2s1)C(=O)N1Cc2cc(OCC(=O)NCCCCC#Cc3cccc4c3C(=O)N(C3CCC(=O)NC3=O)C4=O)ccc2C[C@H]1C(=O)N1CCO[C@H](c2ccccc2)C1 (stereo partly drawn) [Compound 541, ((2-(((2S)-1-((3S)-7-(2-((6-(2-(2,6-dioxopiperidin-3-yl)-1,3-dioxoisoindolin-4-yl)hex-5-yn-1-yl)amino)-2-oxoethoxy)-3-((R)-2-phenylmorpholine-4-carbonyl)-3,4-dihydroisoquinolin-2(1H)-yl)-3,3-dimethyl-1-oxobutan-2-yl)carbamoyl)benzo[b]thiophen-5-yl)difluoromethyl)phosphonic acid] | 
10 | < 0.1 µM | CC(C)(C)[C@H](NC(=O)c1cc2cc(C(F)(F)P(=O)(O)O)ccc2s1)C(=O)N1C[C@@H](OCCCCCCC#Cc2cccc3c2CN(C2CCC(=O)NC2=O)C3=O)C[C@H]1C(=O)N1CCO[C@H](c2ccccc2)C1 (stereo partly drawn) [Compound 587, ((2-(((2S)-1-((2S,4S)-4-((8-(2-(2,6-dioxopiperidin-3-yl)-1-oxoisoindolin-4-yl)oct-7-yn-1-yl)oxy)-2-((R)-2-phenylmorpholine-4-carbonyl)pyrrolidin-1-yl)-3,3-dimethyl-1-oxobutan-2-yl)carbamoyl)benzo[b]thiophen-5-yl)difluoromethyl)phosphonic acid] | DC50 [2]: 0.1 to 1 µM
11 | > 10 µM | CC(C)(C)[C@H](NC(=O)c1cc2cc(C(F)(F)P(=O)(O)O)ccc2s1)C(=O)N1Cc2cc(OCC(=O)NCCCC#Cc3ccc4c(c3)C(=O)N(C3CCC(=O)NC3=O)C4=O)ccc2C[C@H]1C(=O)N1CCO[C@H](c2ccccc2)C1 (stereo partly drawn) [Compound 540, ((2-(((2S)-1-((3S)-7-(2-((5-(2-(2,6-dioxopiperidin-3-yl)-1,3-dioxoisoindolin-5-yl)pent-4-yn-1-yl)amino)-2-oxoethoxy)-3-((R)-2-phenylmorpholine-4-carbonyl)-3,4-dihydroisoquinolin-2(1H)-yl)-3,3-dimethyl-1-oxobutan-2-yl)carbamoyl)benzo[b]thiophen-5-yl)difluoromethyl)phosphonic acid] | 
